Measured values as given in patent US9834514B2, “Antibiotic sensitivity-restoring and photosensitive agents” (New Mexico Tech Research Foundation, priority 2015, dated 2017).

Columns and labels:
[1] = tested on: P. aeruginosa; assay: Cell killing with compounds and PME at fixed concentrations, with and without white light; type: cell-based; conditions: 20 μM compound and 0.1 μg/mL PME
Method: FIG. 26 is an example of the treatment of P. aeruginosa with compound 1 and PME at fixed concentrations.
P. aeruginosa cells were also treated with white light upon being incubated with compound 1 for different durations of time. In a 12×75 mm borosilicate glass culture tube, 1 mL of cell suspension was added. PME was added to the cells, and the samples were mixed using a vortex mixer. The resulting samples were incubated for 1.5 hours at 37° C. on a rotary shaking incubator at 100 rpm. Compound 1 was then added, and the samples were incubated for 30 minutes at 37° C. on a rotary shaking incubator at 100 rpm. The samples were then irradiated with white light using a Lumacare™ LC-122 for 2 minutes (irradiation λ1) and incubated overnight at 37° C. The samples were irradiated again with white light using a Lumacare™ LC-122 for 2 minutes (irradiation λ2). Ten-fold dilutions were made of each sample, and 10 μL of each dilution was drip-streaked onto an agar plate. The samples were incubated overnight at 37° C., and colony counts were performed to calculate CFU/mL.
FIG. 55 is an illustrative example of the treatment of P. aeruginosa with compound 1, PME, co-treatment with compound 1 and PME, and co-treatment with compound 1, PME, and light (λ1 and λ2) at fixed concentrations.

[2] = tested on: Klebsiella pneumoniae (CRE, ATCC BAA-1705); assay: Time-dependent colony counts of CRE with compounds and PME; type: cell-based; conditions: PME 0.2 μg/mL, compound 20 μM; FIGS. 48, 49
Method: The MICs of PME and compounds 8-11 were determined against Klebsiella pneumoniae (CRE, ATCC BAA-1705). […] […] At specific time points, the samples were taken and diluted ten-fold in media. Ten microliters of each dilution was then drip-streaked onto an agar plate and incubated overnight at 37° C. Colony counts were then performed and the CFU/mL were calculated.

[3] = tested on: A. baumannii (ATCC 15151); assay: MIC against A. baumannii; type: cell-based; conditions: Acinetobacter baumannii, ATCC15151
[4] = tested on: A. baumannii (ATCC 15151); assay: Time course of colony counts with compounds and PME or PMB; type: cell-based; conditions: 0.2 μg/mL of PME, compound 5 μM; FIGS. 50, 52
Method: The MICs of PME and compounds 8-11 were determined against A. baumannii (ATCC 15151). […] After incubating the cells with PME, a compound (5 μM) was added, and the samples were further incubated at 37° C. At specific time points, samples were taken and diluted ten-fold in media. Ten microliters of each dilution was then drip-streaked onto an agar plate and incubated overnight at 37° C. Colony counts were then performed, and the CFU/mL were calculated.

[5] = tested on: VRE; assay: Resensitization to antibiotics (log reduction, TABLE 29); type: cell-based, Enterococcus faecalis; conditions: compound 0.5 μM
Method: (§1) In a 96-well microtiter plate, two-fold dilutions were made of each drug (starting with 100 μM) in 100 μL of a cell suspension in TSB. The resulting samples were incubated overnight at 37° C. on a rotary shaking incubator at 100 rpm. The samples were then visually inspected for turbidity. A 20% well volume of MTT reagent (5 mg/mL) was subsequently added, and the samples were incubated for about 20 minutes.

[6] = tested on: A. baumannii; assay: as above; type: cell-based; conditions: compound 5 μM; PME (0.2 μg/mL)
[7] = tested on: CRE; assay: as above; type: cell-based; conditions: compound 20 μM; PME (0.2 μg/mL)
Method: as §1

[8] = tested on: MRSA isolates (S. aureus ATCC 33591, BAA-44, BAA-1707, BAA-1717, BAA-1720, BAA-1747, BAA-1754, BAA-1761, BAA-1763, BAA-1764, BAA-1766); assay: Combination effects of compounds 7-11 and antibiotics on MRSA isolates (turbidity); type: cell-based
From the text: Inhibition resulting from co-treatment of a broth suspension with a compound of the invention and an antibiotic was compared to broth suspensions subjected to each individual treatment. A visual observation of inhibition with the unaided eye upon co-treatment of the broth suspensions, based on turbidity, was considered synergistic.
Exceptions to reading complete inhibition of growth included Gram-positive cocci. For Gram-positive cocci, trailing growth was observed. For these species, the MICs were read at the first spot where trailing was observed, and tiny buttons of growth were ignored. […]
Two-fold dilutions of the antibiotics were prepared in a liquid growth medium dispensed in test tubes. […] The antibiotic-containing tubes were inoculated with a standard bacterial suspension of 5×10^5 CFU/mL. Following an overnight incubation (16-20 hrs) at 35±2° C. under ambient air, the tubes were examined for visible bacterial growth based on turbidity. The lowest concentration of antibiotic that prevented growth was determined to be the MIC. An incubation time of 24 hrs was used to determine the MICs of oxacillin and vancomycin.

Clc1ccc(Oc2c(-c3ccc(Cl)cc3)[nH]c3ccc(Cl)cc23)cc1 [Compound 11]
Co-treatment with PME: log reduction in the CFU/mL compared to PME alone [1]: 2-log reduction
Co-treatment with PME: log reduction in the CFU/mL compared to PME alone ([1]; listed as compound 11): about 2 log reduction
CRE colony populations on simultaneous treatment with PME [2]: reduced the CRE colony populations to sterility
MIC [3]: > 100 µM
A. baumannii colony populations on treatment with compound and PME [4]: reduced to sterility
Log Reduction ([5]; Norfloxacin ([…])): 3-4
Log Reduction ([5]; Tetracycline (1.5 μg/mL)): 3
Log Reduction ([5]; Vancomycin (3.5 μg/mL)): 3
Log Reduction [6]: 8
Log Reduction [7]: 6
combination effect with Gentamycin ([8]; MRSA ATCC 33591): No Synergy
combination effect with Norfloxacin ([8]; MRSA ATCC 33591): No Synergy
combination effect with Oxacillin ([8]; MRSA ATCC 33591): No Synergy
combination effect with Tetracycline ([8]; MRSA ATCC 33591): No Synergy
combination effect with Vancomycin ([8]; MRSA ATCC 33591): Susceptible
combination effect with Norfloxacin ([8]; MRSA ATCC BAA-44): No Synergy
combination effect with Oxacillin ([8]; MRSA ATCC BAA-44): Synergy
combination effect with Tetracycline ([8]; MRSA ATCC BAA-44): Susceptible
combination effect with Vancomycin ([8]; MRSA ATCC BAA-44): Susceptible
combination effect with Gentamycin ([8]; MRSA ATCC BAA-1707): Susceptible
combination effect with Norfloxacin ([8]; MRSA ATCC BAA-1707): Susceptible
combination effect with Oxacillin ([8]; MRSA ATCC BAA-1707): Susceptible
combination effect with Tetracycline ([8]; MRSA ATCC BAA-1707): Synergy
combination effect with Vancomycin ([8]; MRSA ATCC BAA-1707): Susceptible
combination effect with Gentamycin ([8]; MRSA ATCC BAA-1717): Susceptible
combination effect with Norfloxacin ([8]; MRSA ATCC BAA-1717): Susceptible
combination effect with Oxacillin ([8]; MRSA ATCC BAA-1717): Synergy
combination effect with Tetracycline ([8]; MRSA ATCC BAA-1717): Susceptible
combination effect with Vancomycin ([8]; MRSA ATCC BAA-1717): Susceptible
combination effect with Gentamycin ([8]; MRSA ATCC BAA-1720): Susceptible
combination effect with Norfloxacin ([8]; MRSA ATCC BAA-1720): No Synergy
combination effect with Oxacillin ([8]; MRSA ATCC BAA-1720): No Synergy
combination effect with Tetracycline ([8]; MRSA ATCC BAA-1720): Susceptible
combination effect with Vancomycin ([8]; MRSA ATCC BAA-1720): Susceptible
combination effect with Gentamycin ([8]; MRSA ATCC BAA-1747): Susceptible
combination effect with Norfloxacin ([8]; MRSA ATCC BAA-1747): Susceptible
combination effect with Oxacillin ([8]; MRSA ATCC BAA-1747): Susceptible
combination effect with Tetracycline ([8]; MRSA ATCC BAA-1747): Susceptible
combination effect with Vancomycin ([8]; MRSA ATCC BAA-1747): Susceptible
combination effect with Gentamycin ([8]; MRSA ATCC BAA-1754): Susceptible
combination effect with Norfloxacin ([8]; MRSA ATCC BAA-1754): Susceptible
combination effect with Oxacillin ([8]; MRSA ATCC BAA-1754): No Synergy
combination effect with Tetracycline ([8]; MRSA ATCC BAA-1754): Susceptible
combination effect with Vancomycin ([8]; MRSA ATCC BAA-1754): Susceptible
combination effect with Gentamycin ([8]; MRSA ATCC BAA-1761): Susceptible
combination effect with Norfloxacin ([8]; MRSA ATCC BAA-1761): No Synergy
combination effect with Oxacillin ([8]; MRSA ATCC BAA-1761): Susceptible
combination effect with Tetracycline ([8]; MRSA ATCC BAA-1761): Susceptible
combination effect with Vancomycin ([8]; MRSA ATCC BAA-1761): Susceptible
combination effect with Gentamycin ([8]; MRSA ATCC BAA-1763): Susceptible
combination effect with Norfloxacin ([8]; MRSA ATCC BAA-1763): No Synergy
combination effect with Oxacillin ([8]; MRSA ATCC BAA-1763): No Synergy
combination effect with Tetracycline ([8]; MRSA ATCC BAA-1763): Susceptible
combination effect with Vancomycin ([8]; MRSA ATCC BAA-1763): Susceptible
combination effect with Gentamycin ([8]; MRSA ATCC BAA-1764): Susceptible
combination effect with Norfloxacin ([8]; MRSA ATCC BAA-1764): Susceptible
combination effect with Oxacillin ([8]; MRSA ATCC BAA-1764): No Synergy
combination effect with Tetracycline ([8]; MRSA ATCC BAA-1764): Susceptible
combination effect with Vancomycin ([8]; MRSA ATCC BAA-1764): Susceptible
combination effect with Gentamycin ([8]; MRSA ATCC BAA-1766): Susceptible
combination effect with Norfloxacin ([8]; MRSA ATCC BAA-1766): Susceptible
combination effect with Oxacillin ([8]; MRSA ATCC BAA-1766): No Synergy
combination effect with Tetracycline ([8]; MRSA ATCC BAA-1766): Susceptible
combination effect with Vancomycin ([8]; MRSA ATCC BAA-1766): Susceptible
